For 1 molecule, Activity results are on record in ChEMBL document CHEMBL5512665, “A CARM1 Inhibitor Potently Suppresses Breast Cancer Both In Vitro and In Vivo” (J Med Chem, 2024).

The subject of data set [1] is MCF7. Put plainly: Potentiation of etoposide induced antiproliferative activity against human MCF7 cells assessed as upregulation of IFIT1 gene expression at 2.5 uM in presence of etoposide by RT-qPCR analysis. In kind it is functional, cell-based.
Data set [2] relates to MCF7. The experiment in a line: Antitumor activity against human MCF7 cells xenografted in BALB/C mouse assessed as downregulation of TFF1 gene expression at 50 mg/kg,ip administrated every other day for 29 days by RT-qPCR analysis. The note with it: time 29.0 day. Format: functional, organism-based.
The test system of data set [3] is MCF7. The experiment in a line: Synergistic antiproliferative activity against human MCF7 cells assessed as inhibition of cell growth at 2.5 uM incubated for 7 days in presence of fulvestrant by celltiter 96 aqueous one solution cell proliferation assay. Format: functional, cell-based. The following applies: time 7.0 day.
In data set [4] the test system is MCF7. The experiment in a line: Antiproliferative activity against tamoxifen-resistant human MCF7 cells assessed as reduction in cell growth at 5 uM incubated for 7 days by celltiter 96 aqueous one solution cell proliferation assay. In kind it is functional, cell-based. The following applies: time 7.0 day.
Data set [5] deals with MCF7. Put plainly: Antitumor activity against human MCF7 cells xenografted in BALB/C mouse assessed as upregulation of ISG15 gene expression at 50 mg/kg,ip administrated every other day for 29 days by RT-qPCR analysis. In kind it is functional, organism-based. The note with it: time 29.0 day.
The nature of data set [6]: Toxicity in BALB/C mouse implanted with mouse 4T1 cells assessed as change in spleen morphology at 50 mg/kg,ip administrated daily for 14 days. In kind it is organism-based. The note with it: in vivo, 336 h, time 14 day.
In another data set the test system is 4T1. The experiment in a line: Antitumor activity against mouse 4T1 cells implanted in BALB/C mouse assessed as upregulation of DDX58 gene expression at 50 mg/kg,ip administrated daily for 14 days by RT-qPCR analysis. The following applies: time 14.0 day. Format: functional, organism-based.

Each structure is given as a SMILES string. Activity calls are given as the source filed them. The rule behind the calls is not given here.

Turning to `Cc1ccc(-c2nc(N3CCN(CCN(C)C)CC3)ncc2-c2ccoc2)cc1.Cl.Cl`, the result in the data set on MCF7 [1], in the data set with MCF7 [2], with MCF7 [3], in the data set with MCF7 [4], in the data set with MCF7 [5] and with 4T1 was Active. For the same molecule, the Activity result in data set [6] is “Non-Toxic”.
